Results reported in the CheMixHub viscosity set.
“And” between values parts separate entries of the source, which are not always exact repeats. Equal entries are not always repeated.

Assay: xn = mol fraction of the nth substance listed

CCOC=O + c1ccccc1
viscosity [mPa·s], 101 kPa
Details | x1 = 0.2 | x1 = 0.4 | x1 = 0.5 | x1 = 0.8
293.15 K | 0.558 | 0.501 | 0.482 | 0.435
303.15 K | 0.491 | 0.446 | 0.43 | 0.391
308.15 K | 0.465 | 0.427 | 0.409 | 0.373

ClCCCl + CO
viscosity [mPa·s], 101 kPa
Details | x2 = 0.1568 | x2 = 0.2369 | x2 = 0.4217 | x2 = 0.5374 | x2 = 0.6221 | x2 = 0.6906 | x2 = 0.7982 | x2 = 0.8393 | x2 = 0.912
303.15 K | 0.6585 | 0.6407 | 0.6125 | 0.6032 | 0.5936 | 0.5824 | 0.5696 | 0.5617 | 0.5488
313.15 K | 0.5772 | 0.5596 | 0.5318 | 0.5227 | 0.5094 | 0.5005 | 0.4915 | 0.4852 | 0.4762
323.15 K | 0.5169 | 0.499 | 0.4709 | 0.4587 | 0.4506 | 0.4422 | 0.4323 | 0.4255 | 0.4199

[Ce+3].[Cl-].[Cl-].[Cl-] + O
Details | viscosity
298.15 K, 101.33 kPa, x1 = 0.06822 | 12.27 mPa·s and 12.27 mPa·s

CC(=O)O + CCCCOC(C)=O
viscosity [mPa·s], 101 kPa
Details | 298.15 K | 313.15 K
x2 = 0.1025 | 1.003 | 0.811
x2 = 0.2035 | 0.947 | 0.767
x2 = 0.2989 | 0.887 | 0.724
x2 = 0.3998 | 0.842 | 0.685
x2 = 0.4907 | 0.811 | 0.671
x2 = 0.6449 | 0.77 | 0.63
x2 = 0.8015 | 0.729 | 0.599
x2 = 0.8705 | 0.726 | 0.589
x2 = 0.8886 | 0.723 | 0.592
x2 = 0.9096 | 0.712 | 0.583
x2 = 0.9315 | 0.698 | 0.58
x2 = 0.9427 | 0.698 | 0.58
x2 = 0.9605 | 0.696 | 0.574
x2 = 0.9779 | 0.686 | 0.563

CCC[N+](C)(C)C.O=S(=O)([N-]S(=O)(=O)C(F)(F)F)C(F)(F)F + CCC[N+]1(C)CCCC1.O=S(=O)([N-]S(=O)(=O)C(F)(F)F)C(F)(F)F
viscosity [mPa·s], 101.3 kPa
Details | x1 = 0.2 | x1 = 0.4 | x1 = 0.6 | x1 = 0.8
293.15 K | 78.4 | 81.2 | 88.3 | 93.6
298.15 K | 62.8 | 64.9 | – | 73.8
303.15 K | 51.1 | 52.5 | 56.3 | 59.2

CCNc1ccccc1 + CCCCCCCCCCO
viscosity [mPa·s], 101 kPa
Details | 303.15 K | 308.15 K | 313.15 K
x1 = 0.0817 | 7.725 | 7.287 | 6.857
x1 = 0.1745 | 6.632 | 6.215 | 5.818
x1 = 0.2651 | 5.714 | 5.323 | 4.959
x1 = 0.3524 | 4.951 | 4.585 | 4.253
x1 = 0.4321 | 4.345 | 4.002 | 3.697
x1 = 0.5012 | 3.88 | 3.557 | 3.274
x1 = 0.5685 | 3.476 | 3.173 | 2.909
x1 = 0.6325 | 3.131 | 2.845 | 2.6
x1 = 0.6958 | 2.825 | 2.556 | 2.327
x1 = 0.7521 | 2.579 | 2.324 | 2.109
x1 = 0.8012 | 2.382 | 2.14 | 1.937
x1 = 0.8562 | 2.18 | 1.952 | 1.762
x1 = 0.9021 | 2.027 | 1.81 | 1.63

CCOC=O + CC(C)O
viscosity [mPa·s], 100 kPa
Details | x1 = 0.0814 | x1 = 0.1589 | x1 = 0.2351 | x1 = 0.3413 | x1 = 0.4351 | x1 = 0.5587 | x1 = 0.6507 | x1 = 0.7349 | x1 = 0.8498 | x1 = 0.9394
293.15 K | 1.77 | 1.33 | 1.06 | 0.82 | 0.68 | 0.57 | 0.52 | 0.48 | 0.44 | 0.42
298.15 K | 1.53 | 1.18 | 0.95 | 0.76 | 0.64 | 0.54 | 0.49 | 0.46 | 0.42 | 0.4
303.15 K | 1.35 | 1.06 | 0.87 | 0.7 | 0.59 | 0.51 | 0.46 | 0.43 | 0.4 | 0.38
308.15 K | 1.19 | 0.95 | 0.79 | 0.65 | 0.56 | 0.48 | 0.44 | 0.41 | 0.38 | 0.36
313.15 K | 1.05 | 0.85 | 0.71 | 0.59 | 0.52 | 0.45 | 0.41 | 0.39 | 0.36 | 0.34
318.15 K | 0.92 | 0.75 | 0.64 | 0.54 | 0.48 | 0.42 | 0.39 | 0.36 | 0.34 | 0.32
323.15 K | 0.81 | 0.67 | 0.57 | 0.49 | 0.44 | 0.38 | 0.36 | 0.33 | 0.31 | 0.3
